Test results reported in patent US7713991B2, “Imidazo[[1, 5-A] pyridine derivatives and methods for treating aldosterone mediated diseases” (Novartis AG, priority 2003, dated 2010).

Test system: not given
Experiment: not given
Settings: not given

| SMILES | melting point [°C] |
| --- | --- |
| Cl.c1ccc(-c2ccc(-c3cccc4cncn34)cc2)cc1 | 240 to 242 |
| Cl.c1ccc(-c2ccccc2-c2cccc3cncn23)cc1 | 200 to 201 |
| Cl.c1ccc2c(-c3cccc4cncn34)coc2c1 | 96 to 98 |

Next, values leading:

| melting point [°C] | SMILES |
| --- | --- |
| 149 to 152 | Cl.O=C(OCc1ccccc1)N1CC=C(c2cccc3cncn23)CC1 |
| 222 to 223 | Cl.c1ccc2c(-c3cccc4cncn34)cccc2c1 [Example 1, 5-Naphthalen-1-yl-imidazo[1,5-a]pyridine hydrochloride] |

Biological target: aldosterone synthase (Rattus norvegicus, UniProt P30099)
Sequence (P30099 35-510): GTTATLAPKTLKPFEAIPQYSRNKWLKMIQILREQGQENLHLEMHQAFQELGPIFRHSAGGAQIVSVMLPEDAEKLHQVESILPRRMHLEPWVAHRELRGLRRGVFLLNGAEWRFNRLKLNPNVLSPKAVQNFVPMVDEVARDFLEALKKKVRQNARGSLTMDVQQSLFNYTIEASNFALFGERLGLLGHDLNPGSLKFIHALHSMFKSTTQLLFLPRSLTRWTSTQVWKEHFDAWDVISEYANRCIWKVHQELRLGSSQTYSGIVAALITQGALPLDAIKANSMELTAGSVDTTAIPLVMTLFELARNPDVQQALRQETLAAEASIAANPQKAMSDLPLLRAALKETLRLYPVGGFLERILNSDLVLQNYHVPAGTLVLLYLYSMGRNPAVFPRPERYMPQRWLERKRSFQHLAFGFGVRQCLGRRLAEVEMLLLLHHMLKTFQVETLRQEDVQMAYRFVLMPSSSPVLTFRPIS
Experiment: aldosterone synthase inhibitory activity in vitro
Assay type: biochemical
Settings: rat adrenal glomerulosa homogenate, corticosterone substrate; read-out: inhibits the aldosterone synthase activity, IC50 value
Text: The aldosterone synthase inhibitory activity in vitro may be determined as follows:
Adult male Sprague-Dawley rats weighing 125-150 g are obtained from Harlan Farms. All animals are caged in pairs and maintained under standard conditions of light and temperature. The animals are placed on a sodium depleted diet (0.01-0.02%) from Harland Teklad, Madison Wis. (Cat. No. TD90228) and maintained on normal drinking water ad libitum. The animals are maintained on this diet for two to four weeks prior to harvesting the adrenal glomerulosa cells. The rats are killed by CO2 inhalation, and the adrenals are immediately removed and placed in the same ice-cold buffer used during homogenization and assay of the enzyme preparation. The adrenals are de-capsulated to obtain the glomerulosa tissue. The tissue is homogenized in a glass homogenizer containing Tris assay buffer (8.5 mM MgCl2, 2.7 mM CaCl2, 3.13 mM KCl, 7.59 mM NaCl, 0.1% TEA and 50 mM Tris HCl adjusted to pH 7.4). […] The plates are scanned for radioactivity with a Bioscan System 200 Imaging Scanner (Bioscan, Ish. D.C.). The two products of the aldosterone synthase, 18—OH-corticosterone and aldosterone are scraped and counted in a liquid scintillation counter (Beckman LS6000TA, Beckman Instr., Palo Alto, Calif.).
The slope (Hill Coefficient) and x intercept (IC50) are determined by linear regression of the experimental data.

| IC50 [nM] | SMILES |
| --- | --- |
| ~50 | Cl.c1ccc2c(-c3cccc4cncn34)cccc2c1 [Example 1, 5-Naphthalen-1-yl-imidazo[1,5-a]pyridine hydrochloride] |
